{"source": "patent US12194039B2", "about": "“Methods of treating heart failure by administering omecamtiv mecarbil” (Cytokinetics, Inc., priority 2020, dated 2025)", "key": {"[1]": {"tested_on": "patients with heart failure", "details": "result in words; cited from earlier work"}, "[2]": {"details": "sensitive MATE 1/2K substrate metformin 850 mg SD, with OM 25 mg BID"}, "[3]": {"details": "sensitive BCRP substrate rosuvastatin 10 mg SD, with OM 50 mg SD"}, "[4]": {"details": "sensitive CYP3A substrate midazolam 5 mg SD, with OM 25 mg BID"}, "[5]": {"details": "sensitive P-gp substrate digoxin 0.5 mg SD, with OM 50 mg SD"}}, "note": "Like-named read-outs stand apart in the source and are kept apart here.", "data": [{"compound": "CN(C)C(=N)N=C(N)N", "note": "[Metformin]", "values": [{"measurement": "Mean Ratio of co-administered drug AUC (90% CI)", "setting": "[2]", "value": "0.99 (0.92-1.05)"}, {"measurement": "Mean Ratio of co-administered drug Cmax (90% CI)", "setting": "[2]", "value": "1.10 (1.01-1.21)"}]}, {"compound": "CC(C)c1nc(N(C)S(C)(=O)=O)nc(-c2ccc(F)cc2)c1/C=C/[C@@H](O)C[C@@H](O)CC(=O)O", "note": "[Rosuvastatin]", "values": [{"measurement": "% Change of co-administered drug AUC (↑ = increase)", "setting": "[3]", "value": "↑27%"}, {"measurement": "% Change of co-administered drug Cmax (↑ = increase)", "setting": "[3]", "value": "↑45%"}, {"measurement": "Mean Ratio of co-administered drug AUC (90% CI)", "setting": "[3]", "value": "1.27 (1.14-1.42)"}, {"measurement": "Mean Ratio of co-administered drug Cmax (90% CI)", "setting": "[3]", "value": "1.54 (1.33-1.79)"}]}, {"compound": "Cc1ncc2n1-c1ccc(Cl)cc1C(c1ccccc1F)=NC2", "note": "[Midazolam]", "values": [{"measurement": "% Change of co-administered drug AUC (↓ = decrease)", "setting": "[4]", "value": "↓18%"}, {"measurement": "% Change of co-administered drug Cmax (↓ = decrease)", "setting": "[4]", "value": "↓10%"}, {"measurement": "Mean Ratio of co-administered drug AUC (90% CI)", "setting": "[4]", "value": "0.82 (0.71-0.94)"}, {"measurement": "Mean Ratio of co-administered drug Cmax (90% CI)", "setting": "[4]", "value": "0.90 (0.75-1.08)"}]}, {"compound": "COC(=O)Nc1c(N)nc(-c2nn(Cc3ccccc3F)c3ncc(F)cc23)nc1N", "note": "[vericiguat]", "values": [{"measurement": "Treatment efficacy at higher NT-proBNP concentrations", "setting": "[1]", "value": "declined"}]}, {"compound": "C[C@H]1O[C@@H](O[C@H]2[C@@H](O)C[C@H](O[C@H]3[C@@H](O)C[C@H](O[C@H]4CC[C@@]5(C)[C@H](CC[C@@H]6[C@@H]5C[C@@H](O)[C@]5(C)[C@@H](C7=CC(=O)OC7)CC[C@]65O)C4)O[C@@H]3C)O[C@@H]2C)C[C@H](O)[C@@H]1O", "note": "[Digoxin]", "values": [{"measurement": "% Change of co-administered drug Cmax (↑ = increase)", "setting": "[5]", "value": "↑8%"}, {"measurement": "Mean Ratio of co-administered drug AUC (90% CI)", "setting": "[5]", "value": "1.06 (0.99-1.14)"}, {"measurement": "Mean Ratio of co-administered drug Cmax (90% CI)", "setting": "[5]", "value": "1.08 (0.92-1.26)"}]}]}
